The NIST ThermoML archive (doi:10.1016/j.jct.2014.07.018)

Experiment: molar heat capacity at constant pressure
Conditions: 101.33 kPa, Vacuum adiabatic calorimetry

CCCCn1cc[n+](C)c1.[I-] [1-butyl-3-methylimidazolium iodide]
molar heat capacity at constant pressure [J/K/mol]
Conditions	Crystal	Glass
4.858 K	0.768	–
5 K	0.845	1.57
5.042 K	–	1.601
5.112 K	0.909	–
5.32 K	–	1.862
5.371 K	1.07	–
5.604 K	–	2.149
5.638 K	1.249	–
5.895 K	–	2.463
5.91 K	1.452	–
6.217 K	1.701	–
6.222 K	–	2.842
6.56 K	2.006	–
6.586 K	–	3.292
6.91 K	2.343	–
6.955 K	–	3.776
7.265 K	2.714	–
7.328 K	–	4.295
7.496 K	–	4.532
7.625 K	3.114	–
7.705 K	–	4.838
7.884 K	–	5.11
7.99 K	3.553	–
8.267 K	–	5.703
8.357 K	4.021	–
8.654 K	–	6.323
8.728 K	4.513	–
9.042 K	–	6.967
9.104 K	5.04	–
9.433 K	–	7.63
9.483 K	5.597	–
9.825 K	–	8.316
9.868 K	6.177	–
10 K	6.39	8.62
10.33 K	–	9.205
10.36 K	6.957	–
10.94 K	–	10.33
10.95 K	7.92	–
11.56 K	8.937	11.49
12.16 K	9.99	–
12.18 K	–	12.66
12.77 K	11.08	–
12.8 K	–	13.88
13.38 K	12.19	–
13.42 K	–	15.11
14 K	13.34	–
14.05 K	–	16.37
14.63 K	14.54	–
14.69 K	–	17.68
15 K	15.25	18.31
15.25 K	15.73	–
15.47 K	–	19.26
15.99 K	17.18	–
16.42 K	–	21.23
16.84 K	18.83	–
17.37 K	–	23.19
17.7 K	20.48	–
18.32 K	–	25.15
18.56 K	22.1	–
19.27 K	–	27.09
19.42 K	23.73	–
20 K	24.83	28.59
20.22 K	–	29.03
20.29 K	25.36	–
21.48 K	–	31.59
21.5 K	27.65	–
23.05 K	–	34.73
23.06 K	30.6	–
24.62 K	33.53	–
24.63 K	–	37.87
25 K	34.2	38.6
26.19 K	36.35	–
26.21 K	–	40.93
27.59 K	38.83	–
27.79 K	–	43.88
29.09 K	41.41	–
29.96 K	–	47.88
30 K	42.93	47.93
30.68 K	44.04	–
32.35 K	–	52.05
32.43 K	46.84	–
34.29 K	–	55.25
34.33 K	49.79	–
35 K	50.8	56.37
36.21 K	–	58.25
36.25 K	52.67	–
38.13 K	–	61.21
38.16 K	55.41	–
40 K	58.01	64
40.04 K	–	64.03
40.07 K	58.07	–
42.06 K	–	66.96
42.08 K	60.84	–
44.18 K	–	69.94
44.19 K	63.71	–
45 K	64.77	71.05
46.3 K	66.48	72.87
48.41 K	69.11	–
48.42 K	–	75.66
50 K	71.06	77.66
50.52 K	71.72	–
50.54 K	–	78.37
52.64 K	74.22	–
52.66 K	–	80.96
54.76 K	76.59	–
54.78 K	–	83.48
56.88 K	78.93	–
56.91 K	–	85.88
59.01 K	81.2	–
59.04 K	–	88.27
60 K	82.26	89.36
61.14 K	83.4	–
61.17 K	–	90.59
63.27 K	85.56	–
63.31 K	–	92.93
65.4 K	87.69	–
65.45 K	–	95.14
67.54 K	89.76	–
67.59 K	–	97.4
69.67 K	91.79	–
69.73 K	–	99.56
70 K	92.11	99.8
71.91 K	93.89	–
71.97 K	–	101.8
74.26 K	96.02	–
74.32 K	–	104.1
76.61 K	98.12	–
76.67 K	–	106.3
78.96 K	100.2	–
79.03 K	–	108.5
80 K	101	109.4
80.72 K	–	110.2
80.99 K	102	–
81.32 K	102.2	–
81.39 K	–	110.6
82.53 K	–	111.7
82.87 K	103.5	–
83.68 K	104.1	–
83.75 K	–	112.7
84.35 K	–	113.3
84.75 K	105	–
86.18 K	–	114.8
86.65 K	106.5	–
88.03 K	–	116.3
88.56 K	108	–
89.88 K	–	117.8
90 K	109.2	117.9
90.48 K	109.5	–
91.74 K	–	119.3
92.41 K	110.9	–
93.62 K	–	120.8
94.34 K	112.5	–
95.5 K	–	122.3
96.29 K	113.9	–
97.39 K	–	123.7
98.25 K	115.3	–
99.29 K	–	125.2
100 K	116.6	125.7
100.21 K	116.7	–
101.2 K	–	126.6
102.18 K	118.2	–
103.12 K	–	128
104.16 K	119.5	–
105.04 K	–	129.4
106.14 K	120.9	–
106.97 K	–	130.8
107.31 K	121.7	–
108.13 K	122.3	–
108.91 K	–	132.2
109.45 K	123.1	–
110 K	123.5	132.9
110.13 K	123.6	–
110.85 K	–	133.5
111.45 K	124.4	–
112.13 K	124.9	–
112.8 K	–	134.9
113.46 K	125.7	–
114.14 K	126.3	–
114.75 K	–	136.2
115.47 K	127.1	–
116.16 K	127.5	–
116.71 K	–	137.6
117.49 K	128.4	–
118.17 K	128.8	–
118.68 K	–	138.9
119.51 K	129.7	–
120 K	130	139.8
120.2 K	130.1	–
120.64 K	–	140.2
121.54 K	130.9	–
122.22 K	131.4	–
122.62 K	–	141.5
123.57 K	132.2	–
124.25 K	132.7	–
124.59 K	–	142.8
125.6 K	133.5	–
126.29 K	133.9	–
126.57 K	–	144.1
127.64 K	134.7	–
128.33 K	135.1	–
128.55 K	–	145.4
129.68 K	135.9	–
130 K	136.1	146.4
130.37 K	136.4	–
130.54 K	–	146.7
131.72 K	137.2	–
132.41 K	137.6	–
132.53 K	–	148
133.76 K	138.4	–
134.46 K	138.8	–
134.52 K	–	149.3
135.81 K	139.6	–
136.51 K	140.1	150.6
137.87 K	140.8	–
138.51 K	–	151.8
138.56 K	141.3	–
139.92 K	142.1	–
140 K	142.1	152.8
140.51 K	–	153.1
140.62 K	142.5	–
141.98 K	143.3	–
142.51 K	–	154.4
142.68 K	143.7	–
144.04 K	144.5	–
144.51 K	–	155.7
144.74 K	144.9	–
146.1 K	145.7	–
146.51 K	–	157
146.8 K	146.1	–
148.16 K	146.9	–
148.52 K	–	158.3
148.86 K	147.3	–
150 K	147.9	159.3
150.22 K	148.1	–
150.52 K	–	159.6
150.92 K	148.5	–
152.28 K	149.3	–
152.53 K	–	160.9
152.98 K	149.7	–
154.35 K	150.5	–
154.54 K	–	162.2
155.05 K	150.8	–
156.41 K	151.6	–
156.54 K	–	163.5
157.11 K	152.1	–
158.48 K	152.8	–
158.55 K	–	164.8
159.18 K	153.2	–
160 K	153.7	165.7
160.54 K	154	–
160.56 K	–	166.1
161.24 K	154.4	–
162.57 K	–	167.4
162.61 K	155.2	–
163.31 K	155.6	–
164.58 K	–	168.7
164.68 K	156.4	–
165.38 K	156.8	–
166.59 K	–	170
166.74 K	157.5	–
167.44 K	158	–
168.59 K	–	171.4
